Source: PubChem BioAssay (NCI)
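Values below derive from 48-hour exposures of cells grown in 96-well plates, with endpoints linearly interpolated between the two concentrations bracketing the appropriate inhibition level. Here, GI50 denotes the concentration required for 50% inhibition of growth. At the TGI there is no net growth.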

How the values were obtained:
Experiment in all cases: NCI tumour cell line growth inhibition, 48 h
[1] = system: OVCAR-8 ovarian
[2] = system: SNB-19 CNS
[3] = system: SR leukemia
[4] = system: UACC-257 melanoma
[5] = system: BT-549 breast
[6] = system: DU-145 prostate
[7] = system: MCF7 breast
[8] = system: MDA-MB-231 breast
[9] = system: MDA-MB-435
[10] = system: PC-3 prostate

Row | Compound | TGI [1] [µM] | TGI [2] [µM] | TGI [3] [µM] | TGI [4] [µM] | TGI [5] [µM] | TGI [6] [µM] | TGI [7] [µM] | TGI [8] [µM] | TGI [9] [µM] | TGI [10] [µM] | GI50 [6] [µM] | GI50 [7] [µM] | GI50 [8] [µM] | GI50 [9] [µM] | GI50 [10] [µM] | GI50 [2] [µM] | GI50 [3] [µM] | GI50 [4] [µM] | GI50 [1] [µM]
1 | O=C(O)\C=C/C=C/C=C/C=C/C(=O)O | > 100 | > 100 | > 100 | > 100 |  |  |  |  |  |  |  |  |  |  |  |  |  |  | 
2 | Nc1ccc([As](=O)(O)O)cc1 | > 100 | > 100 | > 100 | > 100 | > 100 | > 100 | > 100 | > 100 | > 100 | > 100 |  |  |  |  |  |  |  |  | 
3 | NS(=O)(=O)c1ccc(C(=O)O)cc1 | > 100 | > 100 |  |  | > 100 | > 100 | > 100 | > 100 | > 100 | > 100 |  |  |  |  |  |  |  |  | 
4 | CC(C)(c1ccccc1)c1ccc(Oc2ccc3c(c2)-c2nc-3nc3[nH]c(nc4nc(nc5[nH]c(n2)c2ccc(Oc6ccc(C(C)(C)c7ccccc7)cc6)cc52)-c2cc(Oc5ccc(C(C)(C)c6ccccc6)cc5)ccc2-4)c2ccc(Oc4ccc(C(C)(C)c5ccccc5)cc4)cc32)cc1 | > 100 | > 100 |  | > 100 |  |  |  |  |  |  |  |  |  |  |  |  |  |  | 
5 | Cn1ncc2c(=O)[nH]c(-c3ccccc3)nc21 | > 100 | > 100 |  | > 100 |  |  |  |  |  |  |  |  |  |  |  |  |  |  | 
6 | CCCCCCCCCCCCCCC(C(=O)[O-])[n+]1ccccc1 (stereo unspecified) | > 100 | > 100 | > 100 | > 100 | > 100 | > 100 | 50.9 | > 100 | > 100 | 77.6 |  |  |  |  |  |  |  |  | 
7 | Cc1cccc(NC(N)=S)c1 |  | > 100 | > 100 | > 100 |  |  |  |  |  |  |  |  |  |  |  |  |  |  | 
8 | N=C(N)SC(c1ccccc1)c1ccccc1 | 36.4 | > 100 | > 100 | 28.4 | 37.2 | 25.4 | 30 | 33.5 | 26.5 | 27.3 |  |  |  |  |  |  |  |  | 
9 | CC1(C)CCCC2(C)C3=C(CCC12)C(=O)OC3 (stereo unspecified) | > 100 |  | > 100 | > 100 | > 100 | > 100 | > 100 | > 100 | > 100 | > 100 |  |  |  |  |  |  |  |  | 
10 | O=C(Nc1ccc(-n2ccc3c(NC(=O)c4ccccc4)ncnc32)cc1)Nc1ccc(Cl)c(C(F)(F)F)c1 |  | 7.18 | 4.76 | 6.39 |  | 4.61 | 3.24 | 3.66 | 4.43 | 3.01 | 2.12 | 1.64 | 1.55 | 1.85 | 1.25 | 2.43 | 1.74 | 2.76 | 
11 | Cc1cc(N2CCCCC2)nc(NCc2cc(Nc3ccnc4cc(Cl)ccc34)ccc2F)n1 | 4.68 | 6.33 | 4.99 | 2.85 |  | 3.14 | 1.46 | 3.5 | 3.14 | 4.04 | 1.49 | 0.298 | 1.81 | 1.64 | 1.9 | 1.87 | 1.94 | 1.32 | 2.05
12 | O=C1CC(c2ccccc2)NCCCCN2CC(CN1)C(C(O)c1ccccc1)C2=O (stereo unspecified) | > 100 | > 100 | > 100 | > 100 | > 100 | > 100 | > 100 | > 100 | > 100 | > 100 |  |  |  |  |  |  |  |  | 
13 | CC1(C)CCc2cc3c(cc2O1)OC(C)(C)CC3=O | > 100 |  | > 100 |  |  |  |  |  |  |  |  |  |  |  |  |  |  |  | 
